According to patent US5849709A, “Saccharopeptides and derivatives thereof” (Glycomed Incorporated, priority 1995, dated 1998):

Key:
β-glucuronidase = assay: β-Glucuronidase inhibition assay (Sigma kit 325-A, phenolphthalein glucuronic acid substrate); assay type: biochemical; conditions: 15 μl of 50 mM 9β; for A550 value (β-glucuronidase assay): 550 nm, pH 4.5
Method: The β-glucuronidase inhibition assay is preferably performed in a solvent. Examples of the solvent include water and a suitable buffer, preferably an acetate or an AMP (2-amino-2-methyl-1-propanol) buffer. Phenolphthalein mono-β-glucuronic acid and a saccharopeptide substrate are treated with the enzyme at room temperature, at a pH of about 4-5. The reaction period ranges from 0.5-2 hours. After completion of the reaction, the enzymic reaction is stopped by adjusting the pH and the absorbance is measured at 550 nm.
Composition 9β was used to measure the β-glucuronidase activity, and the measurement was performed in the same manner as that of the conventional method.
The procedure was carried out according to instructions provided in the Sigma kit 325-A. The reagents used were provided in the kit and the proportions of the reagents used is described in the table below:
______________________________________
*0.2M sodium acetate buffer, pH 4.5 at 25° C.;
^# 30 mM phenolphthalein glucuronic acid (PGA), pH 4.5 at 25°
All components, except PGA, were pre-incubated at room temperature for 30 min, PGA was then added to the mixture. At various time points (0.5, 1 and 2h), 2 μl aliquots were removed and added to 1 ml assay diluent, mixed and absorbance read at 550 nm against the blank (A550). The assay diluent is a mixture of acetate buffer (1.44 ml), water (0.96 ml) and AMP (2-amino-2-methyl-1-propanol) buffer (12 ml, 0.1M AMP, pH 11, containing 0.2% sodium lauryl sulfate).

APTT = assay: APTT
Method: (§1) The APTT values of composition 26 were determined as described in U.S. Pat. No. 5,296,471. Table 3 lists the results for the UC-PBA assay, the ACE cell growth inhibition assay, and the APTT values respectively.

human recombinant bFGF = human recombinant bFGF (Homo sapiens, UniProt P09038); assay: UC-PBA assay: binding of RO-12 UC cells to bFGF coated micro-titer wells; assay type: cell-based; conditions: for bFGF binding activity in the UC-PBA assay: heparin as positive control
Method: The effect of compositions 26 on the binding of RO-12 UC cells to bFGF coated micro-titer wells was determined as described by Ishihara, M., et al., Anal Biochem (1992) 202:310-315. (Also see U.S. Pat. No. 5,296,471, issued Mar. 22, 1994). Bound cells are readily quantitated as total protein.
The assay was run as follows: Fifty microliters of 10 μg/ml human recombinant bFGF was added to wells of a 96-well tissue culture plate and incubated overnight at 4° C. The wells were aspirated with PBS to remove any unbound bFGF, rinsed twice with PBS, and subsequently incubated with PBS containing 5% (v/v) fetal bovine serum for 1 hour at room temperature. RO-12 UC cells were suspended at a density of 3×10^6 cells/ml in PBS containing 5% fetal bovine serum. To this mixture was added the desired amount of sulfated composition, or heparin. They were made up in PBS plus 2.5% fetal bovine serum. A control was also run, containing only PBS plus 2.5% fetal bovine serum. Next, 100 μl of the cell suspension was immediately added to the microtiter wells, and incubated for 5 minutes, after which the wells were washed 3 times with PBS. Finally, the amount of cell protein bound to the wells was determined by dissolving the bound cells in 20 μl of 5% SDS and measuring the protein concentration of the cell lysates. BSA was used as the standard.
as §1

Sequence of human recombinant bFGF (P09038 134-288): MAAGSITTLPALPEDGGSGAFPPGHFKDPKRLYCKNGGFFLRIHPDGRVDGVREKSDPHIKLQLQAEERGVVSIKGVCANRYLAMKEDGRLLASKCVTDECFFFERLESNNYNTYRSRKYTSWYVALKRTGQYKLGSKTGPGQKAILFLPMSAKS

Row | IC50 (human recombinant bFGF; RO-12 UC cells, bFGF coated wells) [nM] | bFGF binding activity in the UC-PBA assay (human recombinant bFGF) | Compound | reduction of β-glucuronidase activity (β-glucuronidase) | A550 value (β-glucuronidase assay) (β-glucuronidase; 0.5 h, room temperature (control 0.104)) | A550 value (β-glucuronidase assay) (β-glucuronidase; 1.0 h, room temperature (control 0.199)) | A550 value (β-glucuronidase assay) (β-glucuronidase; 2.0 h, room temperature (control 0.396)) | APTT value (APTT; as described in U.S. Pat. No. 5,296,471) [%] | APTT value, comparison in words (APTT; versus other compounds of similar size)
1 | – | – | [N-]=[N+]=N[C@@H]1O[C@H](C(=O)N[C@@H]2O[C@H](C(=O)O)[C@@H](O)[C@H](O)[C@H]2O)[C@@H](O)[C@H](O)[C@H]1O [Composition 9β, N-(β-D-glucopyran-1-osyluronic acid)-1-azido-1-deoxy-β-D-glucopyranuronamide] | about 85% | 0.014 | 0.030 | 0.059 | – | –
2 | 372 | comparable to heparin | O=C(CCC(=O)N[C@@H]1O[C@H](COS(=O)(=O)O)[C@@H](O[C@H]2O[C@H](COS(=O)(=O)O)[C@@H](O[C@H]3O[C@H](COS(=O)(=O)O)[C@@H](OS(=O)(=O)O)[C@H](OS(=O)(=O)O)[C@H]3OS(=O)(=O)O)[C@H](OS(=O)(=O)O)[C@H]2OS(=O)(=O)O)[C@H](OS(=O)(=O)O)[C@H]1OS(=O)(=O)O)N[C@@H]1O[C@H](COS(=O)(=O)O)[C@@H](O[C@H]2O[C@H](COS(=O)(=O)O)[C@@H](O[C@H]3O[C@H](COS(=O)(=O)O)[C@@H](OS(=O)(=O)O)[C@H](OS(=O)(=O)O)[C@H]3OS(=O)(=O)O)[C@H](OS(=O)(=O)O)[C@H]2OS(=O)(=O)O)[C@H](OS(=O)(=O)O)[C@H]1OS(=O)(=O)O [Composition 26] | – | – | – | – | 14.2 | significantly lower than that of other compounds of similar size
3 | – | inhibits RO-12 UC cell binding | Heparin [reference compound] | – | – | – | – | – | –
